Measured values as given in patent US4450269A, “Mono-5-substituted-3-chloro-4H-1,2,6-thiadiazin-4-one antifungal agents” (FMC Corporation, priority 1980, dated 1984).
Structures can show the parent of a compound that is named as a salt.

Columns and labels:
Pyricularia oryzae [1] = experiment: microbe, parasite or virus in culture; assay type: cell-based; settings: for inhibition at 5 ppm / inhibition at 10 ppm / inhibition at 20 ppm / inhibition at 40 ppm: Pyricularia oryzae, 72 h; for inhibition at 5 ppm: read-out: Percent Fungus Growth Inhibition, PO, 5 ppm, 72 hours; for inhibition at 10 ppm: read-out: Percent Fungus Growth Inhibition, PO, 10 ppm, 72 hours; for inhibition at 20 ppm: read-out: Percent Fungus Growth Inhibition, PO, 20 ppm, 72 hours; for inhibition at 40 ppm: read-out: Percent Fungus Growth Inhibition, PO, 40 ppm, 72 hours; for Percent Fungus Growth Inhibition: PO, 72 hours, hydrochloride
Pyricularia oryzae [2] = experiment: whole plant or invertebrate; assay type: in vivo; settings: for pest or weed control at 150 ppm: Pyricularia oryzae, foliar, 24 h, read-out: Percent Disease Control, curative, rice blast, 150 ppm, 24 hours after inoculation

SMILES | inhibition at 5 ppm (Pyricularia oryzae [1]) [%] | inhibition at 10 ppm (Pyricularia oryzae [1]) [%] | inhibition at 20 ppm (Pyricularia oryzae [1]) [%] | inhibition at 40 ppm (Pyricularia oryzae [1]) [%] | pest or weed control at 150 ppm (Pyricularia oryzae [2]) [%] | Percent Fungus Growth Inhibition (Pyricularia oryzae [1]; 5 ppm) [%] | Percent Fungus Growth Inhibition (Pyricularia oryzae [1]; 10 ppm) [%] | Percent Fungus Growth Inhibition (Pyricularia oryzae [1]; 20 ppm) [%] | Percent Fungus Growth Inhibition (Pyricularia oryzae [1]; 40 ppm) [%] | Percent Disease Control, curative, rice blast (Pyricularia oryzae [2]; 150 ppm, 24 hours after inoculation, hydrochloride) [%]
O=c1c(Cl)nsnc1Oc1cccc(C(F)(F)F)c1 [Compound 44, 3-chloro-5-[(3-trifluoromethyl)phenoxy]-4H--1,2,6-thiadiazin-4-one] | 54 | 71 | 93 | 100 | 0 |  |  |  |  | 
C[S+]([O-])c1ccc(Oc2nsnc(Cl)c2=O)cc1 (centres unmarked) [Compound 40, 3-chloro-5-[(4-methylsulfinyl)phenoxy]-4H-1,2,6,-thiadiazin-4-one] | 33 | 47 | 42 | 89 | 0 |  |  |  |  | 
Cc1ccc(Oc2nsnc(Cl)c2=O)c(C)c1 [Compound 23, 3-chloro-5-(2,4-dimethylphenoxy)-4H--1,2,6-thiadiazin-4-one] | 21 | 42 | 46 | 58 | 0 |  |  |  |  | 
CSc1ccc(Oc2nsnc(Cl)c2=O)cc1 [Compound 39, 3-chloro-5-[(4-methylthio)phenoxy]-4H-1,2,6,-thiadiazin-4-one] | 42 | 61 | 61 | 61 | 0 |  |  |  |  | 
CC(=O)Nc1cccc(Oc2nsnc(Cl)c2=O)c1 [Compound 42, 3-[(3-N--acetylamino)-phenoxy]-5-chloro-4H--1,2,6-thiadiazin-4-one] | 7 | 11 | 32 | 68 | 0 |  |  |  |  | 
COc1cc(Cl)cc(Oc2nsnc(Cl)c2=O)c1 [Compound 52, 3-chloro-5-[(3-chloro-5-methoxy)phenoxy]-4H--1,2,6-thiadiazin-4-one] | 58 | 77 | 100 | 100 | 95 |  |  |  |  | 
N#Cc1ccc(Oc2nsnc(Cl)c2=O)cc1 [Compound 10, 3-chloro-5-(4-cyanophenoxy)-4H--1,2,6-thiadiazin-4-one] | 19 | 19 | 58 | 77 | 0 |  |  |  |  | 
O=c1c(Cl)nsnc1Oc1ccccc1Br [Compound 34, 3-chloro-5-(2-bromophenoxy)-4H-1,2,6,-thiadiazin-4-one] | 38 | 65 | 100 | 100 | 0 |  |  |  |  | 
Cc1cc(Oc2nsnc(Cl)c2=O)cc(C)c1Cl [Compound 59, 3-chloro-5-[(4-chloro-3,5-dimethyl)phenoxy]-4H--1,2,6-thiadiazin-4-one] | 50 | 61 | 50 | 50 | 0 |  |  |  |  | 
Cc1cc(C)cc(Oc2nsnc(Cl)c2=O)c1 [Compound 25, 3-chloro-5-(3,5-dimethylphenoxy)-4H--1,2,6-thiadiazin-4-one] | 33 | 58 | 54 | 63 | 0 |  |  |  |  | 
O=c1c(Cl)nsnc1Oc1c(Cl)c(Cl)c(Cl)c(Cl)c1Cl [Compound 31, 3-chloro-5-(pentachlorophenoxy)-4H--1,2,6-thiadiazine-4-one] | 33 | 48 | 62 | 57 | 0 |  |  |  |  | 
Nc1ccc(Oc2nsnc(Cl)c2=O)cc1 [Compound 27, 5-(4-aminophenoxy)-3-chloro-4H--1,2,6-thiadiazine-4-one hydrochloride] |  |  |  |  |  | 24 | 24 | 0 | 81 | 95
COc1cc(Oc2nsnc(Cl)c2=O)cc(OC)c1C(C)=O [Compound 61, 3-[(4-acetyl-3,5-dimethoxy)-phenoxy]-5-chloro-4H--1,2,6-thiadiazin-4-one] | 28 | 42 | 50 | 44 | 0 |  |  |  |  | 
O=c1c(Cl)nsnc1Oc1cccc2ccccc12 [Compound 32, 3-chloro-5(1-naphthoxy)-4H-1,2,6-thiadiazin-4-one] | 67 | 78 | 100 | 89 | 0 |  |  |  |  | 
Cc1ccc(Oc2nsnc(Cl)c2=O)cc1 [Compound 3, 3-chloro-5-(4-methylphenoxy)-4H--1,2,6-thiadiazin-4-one] | 19 | 41 | 41 | 93 | 0 |  |  |  |  | 
O=c1c(Cl)nsnc1Oc1c(Cl)cc(Cl)cc1Cl [Compound 30, 3-chloro-5-(2,4,6-trichlorophenoxy)-4H--1,2,6-thiadiazin-4-one] | 10 | 71 | 84 | 90 | 0 |  |  |  |  | 
O=c1c(Cl)nsnc1Oc1ccc(Cl)c(Cl)c1 [Compound 16, 3-chloro-5-(3,4-dichlorophenoxy)-4H--1,2,6-thiadiazin-4-one] | 41 | 48 | 48 | 41 | 90 |  |  |  |  | 

SMILES | inhibition at 5 ppm (Pyricularia oryzae [1]) [%] | inhibition at 10 ppm (Pyricularia oryzae [1]) [%] | inhibition at 20 ppm (Pyricularia oryzae [1]) [%] | inhibition at 40 ppm (Pyricularia oryzae [1]) [%] | pest or weed control at 150 ppm (Pyricularia oryzae [2]) [%] | Percent Fungus Growth Inhibition (Pyricularia oryzae [1]; 5 ppm) [%] | Percent Fungus Growth Inhibition (Pyricularia oryzae [1]; 10 ppm) [%] | Percent Fungus Growth Inhibition (Pyricularia oryzae [1]; 20 ppm) [%] | Percent Fungus Growth Inhibition (Pyricularia oryzae [1]; 40 ppm) [%] | Percent Disease Control, curative, rice blast (Pyricularia oryzae [2]; 150 ppm, 24 hours after inoculation, hydrochloride) [%]
CC(C)(C)c1ccc(Oc2nsnc(Cl)c2=O)cc1 [Compound 4, 3-chloro-5-(4-tert-butylphnoxy)-4H--1,2,6-thiadiazin-4-one] | 0 | 0 | 0 | 19 | 95 |  |  |  |  | 
COc1ccc(Cl)c(Oc2nsnc(Cl)c2=O)c1 [Compound 51, 3-chloro-5-[(2-chloro-5-methoxy)phenoxy]-4H--1,2,6-thiadiazin-4-one] | 46 | 77 | 92 | 100 | 0 |  |  |  |  | 
COc1ccc(Oc2nsnc(Cl)c2=O)cc1 [Compound 5, 3-chloro-5-(4-methoxyphenoxy)4H--1,2,6-thiadiazin-4-one] | 4 | 22 | 48 | 63 | 75 |  |  |  |  | 
O=c1c(Cl)nsnc1Oc1ccccc1Cl [Compound 14, 3-chloro-5-(2-chlorophenoxy)-4H--1,2,6-thiadiazin-4-one] | 23 | 26 | 55 | 100 | 0 |  |  |  |  | 
CC(=O)Nc1ccccc1Oc1nsnc(Cl)c1=O [Compound 43, 3-[(2-acetylamino)-phenoxy]-5-chloro-4H--1,2,6-thiadiazin-4-one] | 13 | 18 | 24 | 24 | 0 |  |  |  |  | 
O=c1c(Cl)nsnc1Oc1c(Cl)cccc1Cl [Compound 18, 3-chloro-5-(2,6-dichlorophenoxy)-4H--1,2,6-thiadiazin-4-one] | 26 | 32 | 48 | 48 | 0 |  |  |  |  | 
O=C(O)Cc1ccccc1Oc1nsnc(Cl)c1=O [Compound 45, 3-(2-carboxymethylphenoxy)-5-chloro-4H--1,2,6-thiadiazin-4-one] | 0 | 0 | 0 | 11 | 0 |  |  |  |  | 
O=c1c(Cl)nsnc1Oc1cccc(Cl)c1 [Compound 13, 3-chloro-5-(3-chlorophenoxy)-4H--1,2,6-thiadiazin-4-one] | 44 | 42 | 74 | 100 | 0 |  |  |  |  | 
O=C(O)c1ccc(Oc2nsnc(Cl)c2=O)cc1 [Compound 50, 3-(4-carboxyphenoxy)-5-chloro-4H--1,2,6-thiadiazin-4-one] | 11 | 0 | 11 | 100 | 90 |  |  |  |  | 
CC(=O)Nc1ccc(Oc2nsnc(Cl)c2=O)cc1 [Compound 8, 5-(4-acetylaminophenoxy)-3-chloro-4H--1,2,6-thiadiazin-4-one] | 23 | 0 | 48 | 74 | 0 |  |  |  |  | 
Cc1cc(Cl)c(Oc2nsnc(Cl)c2=O)cc1C [Compound 58, 3-chloro-5-[(2-chloro-4,5-dimethyl)phenoxy]-4H--1,2,6-thiadiazin-4-one] | 43 | 54 | 29 | 50 | 0 |  |  |  |  | 
N#CCc1ccc(Oc2nsnc(Cl)c2=O)cc1 [Compound 46, 3-chloro-5-[(4-cyanomethyl)-phenoxy]4H--1,2,6-thiadiazin-4-one] | 38 | 77 | 100 | 100 | 0 |  |  |  |  | 
O=c1c(Cl)nsnc1Oc1ccc(Cl)cc1 [Compound 12, 3-chloro-5-(4-chlorophenoxy)-4H--1,2,6-thiadiazin-4-one] | 19 | 30 | 59 | 85 | 75 |  |  |  |  | 
CNC(=O)Nc1ccc(Oc2nsnc(Cl)c2=O)cc1 [Compound 28, 3-chloro-5-[4-(3-methylureido)-phenoxy]-4H--1,2,6-thiadiazin-4-one] | 24 | 24 | 52 | 90 | 0 |  |  |  |  | 
CC(=O)c1cccc(Oc2nsnc(Cl)c2=O)c1 [Compound 48, 3-(3-acetylphenoxy)-5-chloro-4H--1,2,6-thiadiazin-4-one] | 56 | 67 | 100 | 100 | 50 |  |  |  |  | 
O=c1c(Cl)nsnc1Oc1ccccc1 [Compound 2, 3-chloro-5-phenoxy-4H--1,2,6-thiadiazin-4-one] | 22 | 26 | 56 | 100 | 0 |  |  |  |  | 
Cc1ccccc1Oc1nsnc(Cl)c1=O [Compound 22, 3-chloro-5-(2-methylphenoxy)-4H--1,2,6-thiadiazin-4-one] | 21 | 33 | 54 | 63 | 0 |  |  |  |  | 
